According to US4912132A, “Novel substances KS-504a, KS-504b, KS-504d and KS-504e and process for their preparation” (Kyowa Hakko Kogyo Co., Ltd., priority 1987, dated 1990):
Entries after “also recorded” stand apart in the source; their conditions may differ.

Assays:
[1] = test system: rabbit aorta; assay: inhibition of contraction using extirpated blood vessel preparations (vasodilative activity); settings: contraction by 20 mM KCl, added 30 minutes before; for inhibition at 10 µg/mL: final concentration 10.0 μg/ml
Experimental: The vosodilative activity of KS-504a, KS-504b and KS-504d is explained below, referring to Experimental Example 1 on inhibition of contraction using extirpated blood vessel preparations.
White bastard rabbits (male, 2-3 kg) were incised along the abdominal median line. The aorta was cut out with a length of about 2-2.5 cm from the venter, and spiral strips with a width of 3-4 mm were prepared therefrom. The strips were ligated with silk yarn at both ends, and the lower end was connected to a stationary rod, whereas the upper end was connected to a tension transducer (TB-612T, a product of Nippon Koden Co., Ltd.). The strips were suspended under an initial tension of 1.5 g. The strips were soaked in a Krebs-Henseleit solution at 32° C. whose composition in g/l was NaCl: 6.92, KCl: 0.35, MgSO4.7H2 O: 0.29, CaCl2.2H2 O: 0.37, KH2 PO4 : 0.16, NaHCO3 :2.1 and glucose: 1.0 in a Magnus tube, and a gas (95% O2 and 5% CO2) was introduced therein. After being stabilized for 1 to 2 hours, the preparations were used for the experiment. Potassium chloride was added to the Magnus tube to a final concentration of 20 mM. The resulting contraction reaction was recorded on a polygraph (AM-6000, a product of Nippon Koden Co., Ltd.) in equal scales through the tension transducer. KS-504a, KS-504b and KS-504d were each dissolved in dimethyl sulfoxide to a concentration of mg/ml, and the solutions were properly diluted with a Krebs-Henseleit solution and added to the Magnus tube 30 minutes before the application of the contracting
*The rate of inhibition of contraction was calculated according to the
Rate of inhibition of contraction (%)

[2] = solubility and stability in alkaline medium (physicochemical properties); settings: for stability in basic substances / alkaline water: basic substances such as pyridine, monoethanolamine, and alkaline water; for Solubility: Also soluble in basic substances: soluble but readily decomposed; for Solubility: Soluble in: solvents listed as Soluble; for Solubility: Insoluble in: solvents listed as Insoluble
[3] = minimal lethal dose in mice; format: in vivo; settings: p.o.
[4] = test system: rat peritoneal exudate cells; assay: inhibition of histamine secretion from rat peritoneal exudate cells; format: cell-based; settings: 10 min, phosphatidyl-L-serine and concanavalin A, 37° C, read-out: Rate of suppression of histamine secretion
Experimental: Influence on histamine secretion from rat peritoneal exudate cells
Rats with body weights of 150-180 g were killed under dry ether anesthesia by exsanguination, and mast cell medium prepared according to the method of Sullivan, et al. J. Immunol. 114, 1473 (1975)](hereinafter abbreviated as MCM, composition: 150mM NaCl, 3.7 mM KCl, 3 mM Na2 HPO4, 3.5 mM KH2 PO4, 1 mM CaCl2, 5.6 mM glucose, 0.1% bovine serum albumin, 10 U/ml heparin) was injected intraperitoneally into the animals at 6 ml/animal. The abdominal parts were massaged for two minutes, and then cut open to sample exuded solution in the abdominal cavities. The exuded solution collected from 6 rats was centrifuged a 100×g for 5 minutes at 4° C, and the precipitate was mixed with an appropriate amount of water-cooled MCM, and washed three times to prepare a cell suspension (peritoneal exudate cells, hereinafter abbreviated as PEC) containing mast cells at a final concentration of about 3×10^4 cells/ml. Identification of mast cells was carried out by staining intracellular granules with 0.05% Toluidine Blue. Then, 1 ml of the thus obtained PEC was preincubated at 37° C for 10 minutes, and then admixed with 0.1 ml of test solutions at various concentrations and incubated for 10 minutes. The incubated mixtures were further admixed with 0.1 ml each of 100 μg/ml phosphatidyl-L-serine and 1000 μg/ml concanavalin A, followed by incubation for 15 minutes. The reaction was discontinued by addition of 3 ml of ice-cooled physiological saline solution, and the mixture was centrifuged at 1100×g for 10 minutes at 4° C. to obtain a supernatant and a residue. Histamine contents of the supernatant and the residue were measured by fluorometry according to the method of Komatsu [Allergy 27, 67 (1978)].
The histamine secretion rate was defined by a percentage of histamine content in the supernatant to total histamine content in the cells. The rate of suppression of histamine secretion by the test solution was calculated according to the following equation.
Rate of suppression of secretion (%) [formula]

[5] = Oryctolagus cuniculus, read-out: Rate of inhibition of contraction

OC1C(Cl)(Cl)C(=C(Cl)Cl)C(O)(C(Cl)Cl)C1(Cl)Cl (stereo not drawn) [KS-504d]
inhibition at 10 µg/mL [1, 5]: 6.9% | inhibition at 30 µg/mL ([1]; Oryctolagus cuniculus, final concentration 30.0 μg/ml, read-out: Rate of inhibition of contraction): 91% | stability in basic substances / alkaline water [2]: readily decomposed | Solubility: Also soluble in basic substances [2]: pyridine, monoethanolamine, etc. and alkaline | Solubility: Soluble in [2]: acetone, ethyl acetate, acetonitrile; also recorded: benzene, methanol, chloroform; also recorded: hexane, water, acidic water

OC1C(Cl)(Cl)C(=C(Cl)Cl)C2(OC2Cl)C1(Cl)Cl (stereo not drawn) [KS-504a]
inhibition at 0.1 µg/mL ([1]; Oryctolagus cuniculus, final concentration 0.1 μg/ml, read-out: Rate of inhibition of contraction): 37% | inhibition at 1 µg/mL ([1]; Oryctolagus cuniculus, final concentration 1.0 μg/ml, read-out: Rate of inhibition of contraction): 59% | inhibition at 3 µg/mL ([1]; Oryctolagus cuniculus, final concentration 3.0 μg/ml, read-out: Rate of inhibition of contraction): 82% | minimal lethal dose [3]: 300 mg/kg | stability in basic substances / alkaline water [2]: readily decomposed | Solubility: Also soluble in basic substances [2]: pyridine, monoethanolamine, etc. and alkaline | Solubility: Insoluble in [2]: water, acidic water | Solubility: Soluble in [2]: methanol, n-butanol, chloroform; also recorded: acetone, ethyl acetate; also recorded: dimethylformamide, dimethylsulfoxide; also recorded: benzene, acetic acid, hexane

OC1C(Cl)(Cl)C(=C(Cl)Cl)C2(OC2Cl)C1(Cl)Cl (stereo not drawn) [KS-504b]
inhibition at 10 µg/mL [1, 5]: 100% | Rate of inhibition of contraction ([1]; final concentration 1.0 μg/ml): 76% | Rate of inhibition of contraction ([1]; final concentration 3.0 μg/ml): 80% | stability in basic substances / alkaline water [2]: readily decomposed | Solubility: Also soluble in basic substances [2]: pyridine, monoethanolamine, etc. and alkaline | Solubility: Insoluble in [2]: water, acidic water | Solubility: Soluble in [2]: methanol, chloroform, acetone, ethyl; also recorded: acetate, acetonotrile; also recorded: dimethylsulfoxide

O=CC1=C(C(Cl)(Cl)Cl)C(Cl)(Cl)C(O)C1(Cl)Cl (stereo not drawn) [KS-504e]
inhibition at 0.03 µg/mL ([4]; test solution 0.03 μg/ml): 15% | inhibition at 0.1 µg/mL ([4]; test solution 0.1 μg/ml): 62% | inhibition at 0.3 µg/mL ([4]; test solution 0.3 μg/ml): 100% | stability in basic substances / alkaline water [2]: readily decomposed | Solubility: Also soluble in basic substances [2]: pyridine, monoethanolamine, etc. and alkaline | Solubility: Insoluble in [2]: water, acidic water | Solubility: Soluble in [2]: methanol, chloroform, acetone, ethyl; also recorded: acetate, acetonitrile; also recorded: dimethylsulfoxide
